{"source": "patent US10689340B2", "about": "“Substituted indoline derivatives as dengue viral replication inhibitors” (priority 2016, dated 2020)", "key": {"[1]": {"system": "DENV-2 16681 strain", "test": "DENV-2 antiviral assay (eGFP fluorescence)", "type": "cell-based, Dengue virus", "details": "DENV-2 16681 eGFP, Vero cells, MOI 0.5, 3 days", "description": "The antiviral activity of all the compounds of the invention was tested against the DENV-2 16681 strain which was labeled with enhanced green fluorescent protein (eGPF). The culture medium consists of minimal essential medium supplemented with 2% of heat-inactivated fetal calf serum, 0.04% gentamycin (50 mg/mL) and 2 mM of L-glutamine. Vero cells, obtained from ECACC, were suspended in culture medium and 25 μL was added to 384-well plates (2500 cells/well), which already contain the antiviral compounds. Typically, these plates contain a 5-fold serial dilution of 9 dilution steps of the test compound at 200 times the final concentration in 100% DMSO (200 nL). […] Finally, each plate contains wells which are assigned as virus controls (containing cells and virus in the absence of compound), cell controls (containing cells in the absence of virus and compound) and medium controls (containing medium in the absence of cells, virus and compounds). To the wells assigned as medium control, 25 μL of culture medium was added instead of Vero cells. Once the cells were added to the plates, the plates were incubated for 30 minutes at room temperature to allow the cells to distribute evenly within the wells. Next, the plates were incubated in a fully humidified incubator (37° C., 5% CO2) until the next day. Then, DENV-2 strain 16681, labeled with eGFP, was added at a multiplicity of infection (MOI) of 0.5. Therefore, 15 μL of virus suspension was added to all the wells containing test compound and to the wells assigned as virus control. In parallel, 15 μL of culture medium was added to the medium and cell controls. Next, the plates were incubated for 3 days in a fully humidified incubator (37° C., 5% CO2). At the day of the read out, the eGFP fluorescence was measured using an automated fluorescence microscope at 488 nm (blue laser). Using an in-house LIMS system, inhibition dose response curves for each compound were calculated and the half maximal effective concentration (EC50) was determined. Therefore, the percent inhibition (I) for every test concentration is calculated using the following formula: I=100*(ST-SCC)/(SVC-SCC); ST, SCC and SVC are the amount of eGFP signal in the test compound, cell control and virus control wells, respectively. The EC50, represents the concentration of a compound at which the virus replication is inhibited with 50%, as measured by a 50% reduction of the eGFP fluorescent intensity compared to the virus control. The EC50 is calculated using linear interpolation (Table 1)."}, "[2]": {"test": "in vitro", "details": "African green monkey"}, "[3]": {"system": "DENV-1 strain TC974#666", "test": "Tetravalent RT-qPCR assay, serotype 1", "type": "cell-based", "details": "Dengue virus, DENV1, Vero, 72 h", "description": "(§1) The antiviral activity of the compounds of the invention was tested against DENV-1 strain TC974#666 (NCPV), DENV-2 strain 16681, DENV-3 strain H87 (NCPV) and DENV-4 strain H241 (NCPV) in a RT-qPCR assay. Therefore, Vero cells were infected with either DENV-1, or -2, or -3, or -4 in the presence or absence of test compounds. At day 3 post-infection, the cells were lysed and cell lysates were used to prepare cDNA of both a viral target (the 3′UTR of DENV; Table 2) and a cellular reference gene (β-actin, Table 2). Subsequently, a duplex real time PCR was performed on a Lightcycler480 instrument. The generated Cp value is inversely proportional to the amount of RNA expression of these targets. Inhibition of DENV replication by a test compound results in a shift of Cp's for the 3′UTR gene. On the other hand, if a test compound is toxic to the cells, a similar effect on β-actin expression will be observed. The comparative ΔΔCp method is used to calculate EC50, which is based on the relative gene expression of the target gene (3′UTR) normalized with the cellular housekeeping gene (β-actin). In addition, CC50 values are determined based on the Cp values acquired for the housekeeping gene β-actin.\n(§2) The culture medium consisted of minimal essential medium supplemented with 2% of heat-inactivated fetal calf serum, 0.04% gentamycin (50 mg/mL) and 2 mM of L-glutamine. Vero cells, obtained from ECACC, were suspended in culture medium and 75 μL/well was added in 96-well plates (10000 cells/well), which already contain the antiviral compounds. […] In addition, each plate contains wells which are assigned as virus controls (containing cells and virus in the absence of compound) and cell controls (containing cells in the absence of virus and compound). Once the cells were added in the plates, the plates were incubated in a fully humidified incubator (37° C., 5% CO2) until the next day. Dengue viruses serotype-1, -2, -3 and -4 were diluted in order to obtain a Cp of ˜22-24 in the assay. Therefore, 25 μL of virus suspension was added to all the wells containing test compound and to the wells assigned as virus control. In parallel, 25 μL of culture medium was added to the cell controls. Next, the plates were incubated for 3 days in a fully humidified incubator (37° C., 5% CO2). After 3 days, the supernatant was removed from the wells and the cells were washed twice with ice-cold PBS (˜100 μL). The cell pellets within the 96-well plates were stored at −80° C. for at least 1 day. Next, RNA was extracted using the Cells-to-CT^Tm lysis kit, according to the manufacturer's guideline (Life Technologies). The cell lysates can be stored at −80° C. or immediately used in the reverse transcription step.\n(§3) In preparation of the reverse transcription step, mix A (table 3A) was prepared and 7.57 μL/well was dispensed in a 96-well plate. After addition of 5 μL of the cell lysates, a five minute denaturation step at 75° C. was performed (table 3B). Afterwards, 7.43 μL of mix B was added (table 3C) and the reverse transcription step was initiated (table 3D) to generate cDNA.\n(§4) Finally, a RT-qPCR mix was prepared, mix C (table 4A), and 22.02 μL/well was dispensed in 96-well LightCycler qPCR plates to which 3 μL of cDNA was added and the qPCR was performed according to the conditions in table 4B on a LightCycler 480.\n(§5) Using the LightCycler software and an in-house LIMS system, dose response curves for each compound were calculated and the half maximal effective concentration (EC50) and the half maximal cytotoxic concentration (CC50) were determined (Tables 5-8)."}, "[4]": {"system": "DENV-2 strain 16681", "test": "Tetravalent RT-qPCR assay, serotype 2", "type": "cell-based", "details": "Dengue virus, DENV2, 72 h; RT-qPCR serotype 2 16681, Protocol A, Vero cells, day 3", "description": "as §1, §2, §3, §4, §5"}, "[5]": {"system": "DENV-3 strain H87", "test": "Tetravalent RT-qPCR assay, serotype 3", "type": "cell-based", "details": "Dengue virus, DENV3, 72 h; RT-qPCR serotype 3 H87, Protocol A, Vero cells, day 3", "description": "as §1, §2, §3, §4, §5"}, "[6]": {"system": "DENV-4 strain H241", "test": "Tetravalent RT-qPCR assay, serotype 4", "type": "cell-based", "details": "Dengue virus, DENV4, 72 h; RT-qPCR serotype 4 H241, Protocol A, Vero cells, day 3", "description": "as §1, §2, §3, §4, §5"}, "[7]": {"test": "in vitro", "type": "cell-based", "details": "African green monkey, CC50", "description": "as §1, with “The comparative ΔΔCp method is used to calculate EC50, which is based on the relative gene expression of the target gene (3′UTR) normalized with the cellular housekeeping gene (β-actin).” left out, “β-actin. […]” for “β-actin.”\nas §5"}, "[8]": {"system": "Vero cells", "test": "in vitro", "type": "cell-based", "details": "African green monkey, 3 days", "description": "as §1, with “The comparative ΔΔCp method is used to calculate EC50, which is based on the relative gene expression of the target gene (3′UTR) normalized with the cellular housekeeping gene (β-actin).” left out, “β-actin. […]” for “β-actin.”\nas §5"}, "[9]": {"system": "Vero cells", "details": "African green monkey"}, "[10]": {"system": "DENV-2", "details": "analogous DENV-2 antiviral assay, reported activity; cited from earlier work"}}, "note": "Counter-ions that a name gives are not always drawn. Like-named read-outs stand apart in the source and are kept apart here.", "data": [{"smiles": "COc1cc(NC(C(=O)N2CCc3ccc(C(F)(F)F)cc32)c2ccc(Cl)cc2F)cc(OCCCC(=O)O)c1", "note": "(racemic) (as salt: HCl) [Compound 9, 4-(3-((1-(4-chloro-2-fluorophenyl)-2-oxo-2-(6-(trifluoromethyl)indolin-1-yl)ethyl)amino)-5-methoxy-phenoxy)butanoic acid]", "values": [{"measurement": "melting point", "value": 110, "unit": "°C"}]}, {"smiles": "COc1cc(NC(C(=O)N2CCc3cc(OC)c(C(F)(F)F)cc32)c2ccc(Cl)cc2F)cc(OCCCC(=O)O)c1", "note": "(racemic) (as salt: HCl) [Compound 11, 4-(3-((1-(4-chloro-2-fluorophenyl)-2-(5-methoxy-6-(trifluoromethyl)indolin-1-yl)-2-oxoethyl)amino)-5-methoxyphenoxy)butanoic acid]", "values": [{"measurement": "melting point", "value": 121, "unit": "°C"}]}, {"smiles": "COc1cc(NC(C(=O)N2CCc3ccc(C(F)(F)F)cc32)c2ccc(Cl)cc2)cc(OCCCC(=O)O)c1", "note": "(racemic) [Compound 3, 4-(3-((1-(4-chlorophenyl)-2-oxo-2-(6-(trifluoromethyl)indolin-1-yl)ethyl)amino)-5-methoxyphenoxy)butanoic acid]", "values": [{"measurement": "EC50", "setting": "[1]; Dengue virus, DENV2, Vero, 72 h", "value": 0.00048, "unit": "µM"}, {"measurement": "melting point", "value": 192, "unit": "°C"}, {"measurement": "CC50", "setting": "[2]", "value": 13, "unit": "µM"}]}, {"smiles": "COc1cc(NC(C(=O)N2CCc3ccc(C(F)(F)F)cc32)c2ccc(Cl)cc2OC)cc(OCCCC(=O)O)c1", "note": "(single isomer, unassigned) [Compound 6B]", "values": [{"measurement": "EC50", "setting": "[1]", "value": 0.00013, "unit": "µM"}, {"measurement": "EC50", "setting": "[3]", "value": 0.00047, "unit": "µM"}, {"measurement": "EC50", "setting": "[4]", "value": 0.00015, "unit": "µM"}, {"measurement": "EC50", "setting": "[5]", "value": 0.0017, "unit": "µM"}, {"measurement": "EC50", "setting": "[6]", "value": 0.016, "unit": "µM"}, {"measurement": "CC50 at 3 days", "setting": "[7]", "value": "> 2.5", "unit": "µM"}, {"measurement": "CC50", "setting": "[8]", "value": "> 2.5", "unit": "µM"}, {"measurement": "CC50", "setting": "[9]", "value": 13, "unit": "µM"}]}, {"smiles": "COc1cccc(NC(C(=O)N2CCc3ccccc32)c2ccccc2)c1", "note": "(stereo not drawn) [(56) of WO-2013/045516]", "values": [{"measurement": "EC50", "setting": "[10]", "value": 0.45, "unit": "µM"}]}, {"smiles": "CNC(=O)c1cccc(NC(C(=O)c2c[nH]c3ccccc23)c2ccccc2)c1", "note": "(stereo not drawn) [(170) of WO-2013/045516]", "values": [{"measurement": "EC50", "setting": "[10]", "value": 0.44, "unit": "µM"}]}]}
